Columns and labels:
[1] = test system: GCE-induced allergic asthma animal model; experiment: Airway hyperresponsiveness (AHR) to methacholine in GCE-induced allergic asthma animal model (Test Example 2); type: in vivo, BALB/c mice; conditions: 10 μg intranasal together with GCE twice a week for 3 weeks; measured on day 21
Protocol: The mice reared according to the method of 1) were used. Specifically, the 8-week-old BALB/c mice were sensitized by intranasal administration of PBS (sham) or 120 μg of GCE prepared according to the method of 2) twice a week for 3 weeks.
AHR was measured 4 days after the last GCE administration using a flexiVent 5.1 small-animal ventilator (SCIREQ, Montreal, PQ, Canada). The mice were placed in a whole body plethysmograph (Buxco, USA) and 0.4 mL of methacholine solutions at various concentrations (3.1, 6.25, 12.5, 25 or 50 mg/mL) in aerosols were administered through inhalation for 10 seconds. Penh was measured 1 minute and 2 minutes after the administration and the mean value was determined as the Penh (enhanced pause) value for the corresponding methacholine administration dosage.
The mice reared according to 1) of Experimental methods were used. Specifically, PBS (sham) or 120 μg of GCE prepared according to 2) of Experimental methods was intranasally administered to the 8-week-old BALB/c mice twice a week for 3 weeks. […] On day 21, the mice were anesthetized and hyperresponsiveness to methacholine (MeCh) was measured (see 4) of Experimental methods).
The mice reared according to 1) of Experimental methods were used. […]
On day 21, the animals were anesthetized and hyperresponsiveness to methacholine (MeCh) was measured (see 4) of Experimental methods).

[2] = test system: GCE-induced allergic asthma animal model; experiment: Lung tissue observation with PAS and Masson's trichrome stain in GCE-induced allergic asthma animal model (Test Example 3); type: in vivo, BALB/c mice; conditions: 10 μg intranasal together with GCE
Protocol: The lung was fixed in a 10% formalin solution for a day and tissues were prepared as paraffin blocks and sectioned to 3- to 4-μm thickness using a microtome. The prepared slides were stained with PAS (periodic acid-Schiff) stain or Masson's trichrome stain.
To evaluate the inhibitory effect of the dNP2-ctCTLA-4 fusion protein on the pathophysiology of lungs in the GCE-induced allergic asthma animal model, the lung tissues of each test group and control group of Test Example 2 was observed according to 7) of Experimental methods.
The lung tissue of each test group and control group of Test Example 3 was imaged after staining with PAS. The red region indicates mucus-secreting goblet cells.
The lung tissues of each test group and control group of Test Example 3 were imaged after staining with Masson's trichrome stain. The blue region indicates collagen deposition and fibrosis.

[3] = test system: GCE-induced allergic asthma animal model; experiment: Cell number and immune cell distribution in bronchoalveolar lavage fluid (Test Example 4); type: in vivo, BALB/c mice; conditions: 10 μg intranasal together with GCE; versus GCE-administered PBS test group
Protocol: In order to collect the bronchoalveolar lavage fluid, the mouse lungs were washed with 1 mL of HBSS (Hank's balanced salt solution) with an intubated tube fluid. Total cells in the lavage fluid were counted with a hemocytometer. Then, the lavage fluid was centrifuged and the cells were prepared on slides after centrifugation at 1000 rpm for 3 minutes. The slides were stained with a Hemacolor staining kit (Merck Millipore, Darmstadt, Germany). The cells were differentially counted until the total counted number reached at least 200 according to the standard hemocytologic procedures to count macrophages and eosinophils.
Experimental conditions were designed as in Test Example 2. A bronchoalveolar lavage fluid was obtained from each test group and control group of Test Example 2 and the inhibitory effect of eosinophil infiltration and Th2 cytokine production was investigated. The details of the design of experiments are as follows.
(§1) The mice reared according to 1) of Experimental methods were used. Specifically, 120 μg of GCE prepared according to 2) of Experimental methods was intranasally administered to the 8-week-old BALB/c mice twice a week for 3 weeks. 10 μg of dNP2-ctCTLA-4 (Example 2), dNP2-EGFP (Comparative Example 3) or a vehicle (PBS) was intranasally administered together when the GCE was administered to the mice.
15 minutes after the experiment was completed, a bronchoalveolar lavage fluid (BALF) was obtained by injecting 1 mL of PBS twice to each animal (see 5) of Experimental methods).

[4] = test system: IL-5, IL-13, IL-4 and IFN-γ; experiment: Cytokine expression by ELISA in bronchoalveolar lavage and lung tissues (Test Example 4); type: in vivo, BALB/c mice; conditions: 10 μg intranasal together with GCE
Protocol: The […] obtained by the method of 5) was homogenized using the T-PER tissue protein extraction reagent (Thermo Fisher Scientific, MA, US) to prepare a suspension. The suspension was incubated at 4° C. for 30 minutes and then centrifuged at 2500 rpm for 10 minutes. The supernatant was filtered with a 0.45-μm filter to analyze cytokine expression levels.
as §1
The concentration of IL-5, IL-13, IL-4 and IFN-γ was analyzed with the ELSISA kit and the result was normalized to the total protein concentration of the tissue. The protein concentration was quantified by the Bradford assay. n=5 per each group and the results are presented as mean±s.e.m. (standard error of mean). *p<0.05, **p<0.01.
In this experiment, the bronchoalveolar lavage (BAL) and lung tissues were recovered from each test group and control group and the expression level of IL-13, IL-4 and Th2 cytokines was compared.

[5] = test system: IL-13, IL-4 and IFN-γ; experiment: Cytokine expression by ELISA in bronchoalveolar lavage and lung tissues, comparison with CTLA4-Ig (Test Example 5); type: in vivo, BALB/c mice; conditions: 10 μg intranasal together with GCE
Protocol: The mice reared according to 1) of Experimental methods were used. Specifically, 120 μg of GCE prepared according to 2) of Experimental methods was intranasally administered to the 8-week-old BALB/c mice twice a week for 3 weeks.
(standard error of mean). *p<0.05, **p<0.01.

[6] = test system: GCE-induced allergic asthma animal model; experiment: H&E lung tissue observation and airway epithelial thickness, comparison with CTLA4-Ig (Test Example 5); type: in vivo, BALB/c mice
[7] = test system: naive CD4 T cells differentiated into Th2 cells; experiment: Th2 differentiation assay (Test Example 6); type: cell-based, BALB/c mice; conditions: 1 μM for 6 days; anti-CD3/CD28, IL-4; flow cytometry
Protocol: Mouse naive CD4 T cells were isolated from the 8-week-old BALB/c mice by magnetic-activated cell sorting (MACS, naive CD4 T cell isolation kit, mouse, Miltenyi, Bergisch Gladbach, Germany).
Then, 2.5×10^5 of the isolated cells were seeded onto anti-CD3/anti-CD28 antibody (0.1 μg/mL)-coated 96-well plates. The cells were incubated in the presence of anti-IFN-γ neutralizing antibody (5 μg/mL), IL-2 (50 U/mL), IL-4 (30 ng/mL) and PBS. After adding 1 μM dNP2-EGFP (Comparative Example 3) or 1 μM dNP2-ctCTLA-4 (Example 2) to each well for 6 days, the cells were analyzed by flow cytometry after re-stimulation, protein transport inhibitor treatment and intracellular staining with anti-mouse IFN-γ-FITC and anti-mouse IL-4-PE FACS antibodies.
The experiment was conducted according to 8) of Experimental methods.
MACS-sorted CD4^+ CD62L^hiCD44^− native CD4 T cells isolated from 8-week-old BALB/c mice were used. They were differentiated into Th2 cells by addition of IL-4 during activation with anti-CD3/CD28 antibodies for 6 days.
The result is presented as mean±s.e.m. (standard error of mean) (n=3). **p<0.01. NA (non-activated) denotes a negative control group, not stimulated by cytokines or anti-TcR antibody.

dNP2-ctCTLA-4: fusion protein: cell-penetrating peptide dNP2 (SEQ ID NO 1) linked to the N-terminal of the ctCTLA-4 peptide (SEQ ID NO 2) (KIKKVKKKGRKGSKIKKVKKKGRKKMLKKRSPLTTGVYVKMPPTEPECEKQFQPYFIPIN; Synthetic peptide sequence, dNP2 peptide; Synthetic peptide sequence, ctCTLA-4 peptide)
airway hyperresponsiveness to methacholine (airway resistance and airway elastance) [1]: significantly reduced airway hyperresponsiveness | fibrotic area around the bronchial regions (Masson's trichrome stain) [2]: significantly reduced fibrotic area | inflammatory cells and goblet cells in the lungs (PAS stain) [2]: significantly reduced inflammatory cells and goblet cells | decrease in the number of eosinophils in the bronchoalveolar lavage (BAL) [3]: ≥ 3 times | decrease in the number of macrophages in the bronchoalveolar lavage (BAL) [3]: ≥ 3 times | decrease in the number of total cells in the bronchoalveolar lavage (BAL) [3]: ≥ 3 times | level of IFN-γ ([4]; ELISA): decreased level of IFN-γ | decreased expression levels of IL-5, IL-13, IL-4 and IFN-γ in lung tissues ([4]; ELISA normalized to total protein, versus PBS test group): > 2 times | decreased expression levels of IL-5, IL-13, IL-4 and IFN-γ in the bronchoalveolar lavage (BAL) ([4]; ELISA, versus PBS test group): more than 3 times | levels of IL-13 and IFN-γ in the bronchoalveolar lavage (BAL) and lung tissues [5]: significantly decreased levels of IL-13 and IFN-γ | physiological features of the respiratory epithelium: cell infiltration and airway epithelium thickening (H&E) ([6]; 10 μg intranasal together with GCE): improved physiological features of the respiratory epithelium | pharmacological effect relative to the existing CTLA4-Ig ([6]; intranasal administration, GCE-induced allergic asthma animal model): 2-3 times | cytokine production (IL-4 and/or IL-13-producing CD4 T cells) in Th2 differentiation [7]: significantly reduced cytokine production

Reference: patent publication US20200023036A1, “PHARMACEUTICAL COMPOSITION FOR PREVENTING OR TREATING INFLAMMATORY RESPIRATORY DISEASE CONTAINING FUSION PROTEIN IN WHICH CELL-PENETRATING PEPTIDE AND CTCTLA4 PEPTIDE ARE FUSED AS ACTIVE INGREDIENT” (IUCF-HYU (INDUSTRY-UNIVERSITY COOPERATION FOUNDATION HANYANG, priority 2017, published 2020)
